Results as given in BindingDB's records for doi:10.7270/Q2B56H72 (Nmmlsc, 2011).

Target: T1, Beta-adrenergic receptor kinase 1 (Homo sapiens, UniProt P25098)
T1 sequence (P25098 whole entry): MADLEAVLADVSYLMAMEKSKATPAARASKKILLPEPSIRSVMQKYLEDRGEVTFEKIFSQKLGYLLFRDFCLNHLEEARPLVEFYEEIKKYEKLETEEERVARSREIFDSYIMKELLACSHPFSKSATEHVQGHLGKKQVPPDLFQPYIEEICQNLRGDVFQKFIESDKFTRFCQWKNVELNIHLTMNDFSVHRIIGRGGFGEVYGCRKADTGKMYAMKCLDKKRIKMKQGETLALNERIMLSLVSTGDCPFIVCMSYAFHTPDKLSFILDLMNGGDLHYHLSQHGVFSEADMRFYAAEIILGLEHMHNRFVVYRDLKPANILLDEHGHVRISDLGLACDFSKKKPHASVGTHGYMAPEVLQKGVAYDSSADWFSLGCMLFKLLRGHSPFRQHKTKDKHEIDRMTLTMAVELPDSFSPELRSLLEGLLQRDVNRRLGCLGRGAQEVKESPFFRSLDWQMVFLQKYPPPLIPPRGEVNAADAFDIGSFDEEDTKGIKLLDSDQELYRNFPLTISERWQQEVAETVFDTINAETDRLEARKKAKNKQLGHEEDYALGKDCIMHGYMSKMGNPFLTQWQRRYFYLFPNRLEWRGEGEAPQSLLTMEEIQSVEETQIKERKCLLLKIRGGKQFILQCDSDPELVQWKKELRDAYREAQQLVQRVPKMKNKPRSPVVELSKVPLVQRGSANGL
Experiment: aptamer displacement from bead-bound GRK2 – biochemical, cherry pick 1, bead flow cytometry, dose response (AID 504500)

EC50: 14.8 µM
SMILES: C=c1[nH]n(-c2cccc(C(=O)O)c2)c(=O)c1=CC=Cc1ccco1 [SMR000113614]
